# Laboratory results reported in paper PMC9296036, “A peptide interfering with the dimerization of oncogenic KITENIN protein and its stability suppresses colorectal tumour progression” (Clinical and Translational Medicine, 2022).
# Ends that are not written are not given here.
# Assays:
# KITENIN homodimer = biological target: T1, KITENIN homodimer (Homo sapiens, UniProt Q8TAA9); test: KITENIN homodimerization in Caco2 cells co-expressing KITENIN-V5/Myc (co-immunoprecipitation); format: cell-based
# T1 construct: Lysates of 293T cells expressing full‐length KITENIN‐myc; expressed in transfected cells; host or cells: Caco2
# T1 sequence (Q8TAA9 1-524): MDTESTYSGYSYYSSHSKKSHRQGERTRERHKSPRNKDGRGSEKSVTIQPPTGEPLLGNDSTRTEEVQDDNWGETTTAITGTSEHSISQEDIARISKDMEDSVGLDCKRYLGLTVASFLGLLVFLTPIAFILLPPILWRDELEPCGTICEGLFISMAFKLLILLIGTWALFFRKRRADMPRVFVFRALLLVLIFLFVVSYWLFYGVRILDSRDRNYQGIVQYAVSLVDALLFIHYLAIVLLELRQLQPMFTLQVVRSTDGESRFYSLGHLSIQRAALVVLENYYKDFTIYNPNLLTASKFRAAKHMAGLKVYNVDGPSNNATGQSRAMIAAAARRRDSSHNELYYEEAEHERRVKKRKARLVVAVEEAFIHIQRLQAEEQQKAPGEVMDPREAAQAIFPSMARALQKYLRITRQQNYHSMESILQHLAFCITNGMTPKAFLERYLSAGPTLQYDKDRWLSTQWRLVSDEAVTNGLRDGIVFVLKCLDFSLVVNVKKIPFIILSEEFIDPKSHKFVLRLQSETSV
# Text: (§1) Antibodies against the following proteins were obtained from the indicated suppliers: Na^+/K^+ ATPase, GFP and tubulin (Santa Cruz Biotechnology); c‐Jun, p‐c‐Jun, ERK, p‐ERK, c‐MET, p‐c‐MET and GST (Cell Signaling Technology); V5, Myc (MBL); HA and β‐actin (Sigma); KITENIN (Atlas); His and RACK1, LC3, p62, Myo10, and eukaryotic elongation factor 2 (eEF2) (Abcam). They were used with appropriate secondary antibodies (Thermo). For transient transfection analyses, Caco2, HCT116 and 293T cells were transfected with various plasmids and harvested for immunoblot analysis 48 h after transfection. For most assays using stable cell lines, mixed polyclonal cells were used to exclude clonal variation. […]
# (§2) FIGURE 2 KAI1 C‐terminal interacting tetraspanin (KITENIN) dimerization‐interfering peptide (KDIP) suppresses KITENIN‐induced enhanced cell invasion through the inhibition of the homodimerization of KITENIN. […] After 48 h of treatment, KITENIN transcripts in cells were analysed by the 2^−ΔΔ ^CT method using Q‐PCR. […] Caco2 cells were co‐transfected with KITENIN‐V5/Myc and treated with or without KDIP or scrambled peptide (scr) and were immunoprecipitated with anti‐V5 antibody and detected by indicated antibodies. Numerals indicated a quantification of the MYC bands normalized to the corresponding V5 bands (left panel). […] Numerals indicated a quantification of the bands observed (left panel). […]
# KITENIN = biological target: T2, KITENIN (Mus musculus, UniProt Q80Z96); test: Endogenous KITENIN protein level in CT-26 cells (immunoblot); format: cell-based; conditions: non-transfected CT-26 cells, KDIP 1 μM, 12 h
# T2 construct: decreased endogenous KITENIN protein levels in non‐transfected HCT116 and CT‐26 cells; endogenous in cells; host or cells: CT-26
# T2 sequence (Q80Z96 1-526): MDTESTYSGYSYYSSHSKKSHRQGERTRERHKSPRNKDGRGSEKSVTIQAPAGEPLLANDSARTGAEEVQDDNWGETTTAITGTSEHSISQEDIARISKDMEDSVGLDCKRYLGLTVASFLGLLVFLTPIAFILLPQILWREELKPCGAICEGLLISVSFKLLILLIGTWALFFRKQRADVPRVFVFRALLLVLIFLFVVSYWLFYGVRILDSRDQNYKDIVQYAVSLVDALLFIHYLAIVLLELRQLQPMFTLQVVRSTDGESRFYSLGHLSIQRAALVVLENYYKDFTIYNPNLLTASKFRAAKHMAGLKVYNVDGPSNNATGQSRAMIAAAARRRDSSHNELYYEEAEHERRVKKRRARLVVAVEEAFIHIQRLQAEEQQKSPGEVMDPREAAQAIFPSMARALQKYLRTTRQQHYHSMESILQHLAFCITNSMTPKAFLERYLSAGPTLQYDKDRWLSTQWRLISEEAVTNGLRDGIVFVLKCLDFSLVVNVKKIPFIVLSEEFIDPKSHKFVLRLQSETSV
# Text: as §1, §2
sequence,measurement,setting,value
YARVRRRGPRRWRLVSDEAV [KDIP],"inhibition of dimerization and cell invasion caused by KITENIN overexpression, rank among the 7 peptides of the 449-487 region","KITENIN homodimer; Caco2 cells co-expressing KITENIN-Myc and KITENIN-V5, co-IP and invasion assay",most effective
same,homodimerization of KITENIN in cells (in words),"KITENIN homodimer; Caco2 cells co-transfected with KITENIN-V5/Myc, co-IP",reduced
same,endogenous KITENIN protein level (in words),KITENIN,decreased
